This is an account of results in US20140275108A1, “NOVEL BENZENESULFONAMIDE COMPOUNDS, METHOD FOR SYNTHESIZING SAME, AND USE THEREOF IN MEDICINE AS WELL AS IN COSMETICS” (GALDERMA RESEARCH & DEVELOPMENT, priority 2013, published 2014).

Like-named read-outs stand apart in the source and are kept apart here.

One experiment has as its target TACE enzyme (Homo sapiens, UniProt P78536). Briefly: Enzymatic assay for TACE inhibition (fluorescent substrate). The class given is biochemical.
In a further experiment the test system is other MMPs. Briefly: Inhibition of other MMPs (data not shown). The class given is biochemical. The source says:
(§1) Several compounds were dose-response tested on TACE and MMP-1, MMP-3, and MMP-12 according to the same protocol as that described above.

The target of a further experiment is MMP-12 (Homo sapiens, UniProt P39900). Briefly: Inhibition of MMPs, MMP-12. The settings on record: Table 3, Example 30. The class given is biochemical.
MMP-12, sequence (P39900 106-470): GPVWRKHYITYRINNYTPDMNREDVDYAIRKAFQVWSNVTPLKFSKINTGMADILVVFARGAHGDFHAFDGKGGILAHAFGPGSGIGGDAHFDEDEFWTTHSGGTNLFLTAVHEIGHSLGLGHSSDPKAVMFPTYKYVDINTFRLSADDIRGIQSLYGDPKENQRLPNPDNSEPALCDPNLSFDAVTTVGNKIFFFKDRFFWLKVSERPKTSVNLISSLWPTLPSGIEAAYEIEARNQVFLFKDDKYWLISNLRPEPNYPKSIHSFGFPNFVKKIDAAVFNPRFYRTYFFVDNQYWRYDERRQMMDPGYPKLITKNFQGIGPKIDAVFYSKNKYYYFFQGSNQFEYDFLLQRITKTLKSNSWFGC
From the text: as §1

Experiment [1] has as its system edema induced by P. acnes. Nature of the experiment: Mouse ear edema model, cutaneous inflammation induced by P. acnes (ear thickness). The class given is in vivo, Balb/c mouse. The settings on record: topical on mouse ear, Day 1 to Day 7, after intradermal live P. acnes; Compound D 0.1%, 0.3%, 0.6% once a day, 0.6% twice a day; CD0153F 0.01% once a day; FIG. 1. Here is the method:
(§2) P. acnes stimulates the production of inflammatory cytokines, such as TNFα and interleukins. In this Example, the mouse ear edema model was used to investigate inflammation induced by P. acnes. This is a chronic inflammation model involving intense innate and adaptive immunity. The thickness of the ear is measured each day to determine the amount of swelling caused by P. acnes. The amount of TNFα and IL-6 secreted is determined.
(§3) After one intradermal injection of live P. acnes on Day 0, each of the following preparations was topically applied once a day on the ear of a Balb/c mouse over the course of 7 days (from Day 1 to Day 7). […]
(§4) Preparations 1-3 served as controls for comparison with preparations 4-7. […] The thickness of the ear was measured each day with a caliper from day 1 until day 8. The amount of TNFα and IL-6 secreted by the skin cells was determined using tissue biopsy samples from the mouse ear. TNF-α and Il-6 were measured using the mouse BD™ Cytometric Bead Array Flex (BD Bioscience, Dosage by FacsArray).

Another experiment deals with TNFα. Briefly: Mouse ear edema model, TNFα secretion by ear skin cells. The class given is in vivo, Balb/c mouse. Conditions: ear tissue biopsy, topical Day 1 to Day 7; FIG. 2A. Here is the method:
as §2, §3, §4

The target in a further experiment is T1, MMP-3 (Homo sapiens, UniProt P08254).
T1 construct: purchased Calbiochem
T1 sequence (P08254 100-477): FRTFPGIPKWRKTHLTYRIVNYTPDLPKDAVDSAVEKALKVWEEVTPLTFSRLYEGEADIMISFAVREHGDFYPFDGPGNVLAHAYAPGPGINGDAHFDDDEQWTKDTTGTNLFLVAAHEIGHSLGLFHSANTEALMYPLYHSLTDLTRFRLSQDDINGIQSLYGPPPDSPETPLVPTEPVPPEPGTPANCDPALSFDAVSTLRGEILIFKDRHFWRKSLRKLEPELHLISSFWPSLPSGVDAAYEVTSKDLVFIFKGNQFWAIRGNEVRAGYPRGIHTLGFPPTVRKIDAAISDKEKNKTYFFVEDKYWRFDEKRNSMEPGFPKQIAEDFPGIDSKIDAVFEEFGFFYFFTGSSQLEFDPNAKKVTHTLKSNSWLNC
Nature of the experiment: Selectivity assay, MMP-3. It counts as biochemical. Conditions: Table 3, Example 30.
From the text: The enzymes are purchased from Calbiochem.
as §1

The target in the next experiment is T2, MMP-1 (Homo sapiens, UniProt P03956).
T2 construct: purchased Calbiochem
T2 sequence (P03956 100-469): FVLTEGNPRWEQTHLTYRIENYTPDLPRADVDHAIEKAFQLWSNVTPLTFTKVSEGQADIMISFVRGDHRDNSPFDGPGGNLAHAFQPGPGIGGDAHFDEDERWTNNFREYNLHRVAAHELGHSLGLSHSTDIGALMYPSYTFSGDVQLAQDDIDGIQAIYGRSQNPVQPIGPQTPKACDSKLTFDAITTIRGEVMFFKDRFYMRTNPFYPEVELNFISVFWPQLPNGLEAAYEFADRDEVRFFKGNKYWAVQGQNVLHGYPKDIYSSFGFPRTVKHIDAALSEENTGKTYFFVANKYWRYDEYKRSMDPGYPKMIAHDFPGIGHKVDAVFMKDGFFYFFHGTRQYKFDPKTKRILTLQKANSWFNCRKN
Nature of the experiment: Selectivity assay, MMP-1. It counts as biochemical. Conditions: Table 3, Example 30.

A further experiment concerns IL-6. Briefly: Mouse ear edema model, IL-6 secretion by ear skin cells. The class given is in vivo, Balb/c mouse. Conditions: ear tissue biopsy, topical Day 1 to Day 7; FIG. 2B. Here is the method:
as §2, §3, §4

Where [2] appears, read: Table 3, Example 30, read-out: TACE = ADAM 17 (IC50 nM).

TACE enzyme, sequence (P78536 215-477): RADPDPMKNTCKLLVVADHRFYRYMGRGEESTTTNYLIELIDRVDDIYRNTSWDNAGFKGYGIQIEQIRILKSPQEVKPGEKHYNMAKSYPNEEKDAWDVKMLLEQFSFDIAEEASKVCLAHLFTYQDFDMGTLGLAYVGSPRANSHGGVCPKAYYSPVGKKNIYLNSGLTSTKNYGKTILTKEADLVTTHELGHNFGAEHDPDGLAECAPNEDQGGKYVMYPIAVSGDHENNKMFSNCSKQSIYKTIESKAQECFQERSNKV

For `CN(C[C@@H](C(=O)NO)N1CCN(S(C)(=O)=O)CC1)S(=O)(=O)c1ccc(OCc2ccccc2)cc1` [Example 4, (S)-3-[(4-Benzyloxybenzenesulfonyl)methylamino]-N-hydroxy-2-(4-methanesulfonylpiperazin-1-yl)propionamide], on TACE enzyme, the “% TACE inhibition at 10 μM” value is 95%. In addition, the IC50 on TACE enzyme (Table 1, read-out: IC50 - TACE) amounted to 497 nM.

For the compound `Cc1cc(COc2ccc(S(=O)(=O)NC[C@@H](C(=O)NO)N3CCOCC3)cc2)c2ccccc2n1` [B], in the experiment with other MMPs, the “effect on other MMPs” value is “no effect”. Also, the values for the IC50 on TACE enzyme (setting [2]) and on MMP-12 were 51 nM and 226 nM, respectively.

Turning to `CCCCC(=O)O[C@]1(C(=O)CO)[C@@H](C)C[C@H]2[C@@H]3CCC4=CC(=O)C=C[C@]4(C)[C@@]3(F)[C@@H](O)C[C@@]21C` [CD0153F, betamethasone valerate, reference compound], the “inhibition of edema (ear swelling) induced by P. acnes” value in experiment [1] is “inhibition of inflammation”. In addition, the “secretion of TNFα induced by P. acnes” value in the experiment with TNFα is on record as “inhibiting TNFα secretion”.

`CC#CCOc1ccc(S(=O)(=O)N(C)CC(C(=O)NO)N2CCN(S(C)(=O)=O)CC2)cc1` (centres unmarked) [Example 1, 3-[(4-but-2-ynyloxybenzenesulfonyl)methylamino]-N-hydroxy-2-(4-methanesulfonylpiperazin-1-yl)propionamide]: at TACE enzyme, the “% TACE inhibition at 10 μM” value is reported as 100%.

`Cc1cc(COc2ccc(S(=O)(=O)NC[C@@H](C(=O)NO)N3CCC(Cc4ccccc4)CC3)cc2)c2ccccc2n1` [C]: the IC50 at TACE enzyme (setting [2]) is 62 nM.

Turning to `Cc1cc(COc2ccc(S(=O)(=O)NC[C@@H](C(=O)NO)N3CCC(S(=O)(=O)C(C)C)CC3)cc2)c2ccccc2n1` [Compound D], the results for the IC50 on MMP-3, at MMP-1 and on TACE enzyme (setting [2]) were 574 nM, 969 nM and 33 nM, respectively. For the same compound, the “inhibition of edema (ear swelling) induced by P. acnes” value in experiment [1] is “did not inhibit the edema”. The “secretion of IL-6 induced by P. acnes” value with IL-6 was “moderately reduced”. The “secretion of TNFα induced by P. acnes” value in the experiment on TNFα was “greatly reduced”.

`Cc1cc(COc2ccc(S(=O)(=O)NC[C@@H](C(=O)NO)N3CCCCC3)cc2)c2ccccc2n1` [Compound A]: the “effect on other MMPs” value in the experiment on other MMPs is “no effect”. This compound also registered an IC50 against MMP-12 of 977 nM.

One may read the IC50 as the concentration that inhibits the measured activity by half.
